According to patent publication US11078232B2, “Preparation and use of molecular site targeted and activated kinase inhibitor” (Yafei Shanghai Biology Medicine Science & Technology Co. …, priority 2017, dated 2021):

Assays:
[1] = Drug content in tumor tissue homogenate (HPLC); format: in vivo; conditions: 10 micromoles per kilogram intravenous, tumor-bearing mice, FIG. 4
Description: Intravenous injection of 10 micromoles per kilogram of the drug into tumor-bearing mice, surgically obtained tumor tissue homogenate, and the drug content was determined by the HPLC method.

[2] = test system: D121 lung cancer cells; experiment: D121 lung cancer immunotherapy model; conditions: for Tumor inhibition rate/% (week 7) / CD8: CD45 (%): single agent; for Tumor inhibition rate/% (week 7): i.v. ⅙ MTD once a week for 4 weeks; for CD8: CD45 (%): tumor CD8+ T cells among CD45-positive cells
Description: (1) D121 lung cancer cells purchased from ATCC were cultured in DMEM medium containing 10% fetal bovine serum at 37° C. and 5% CO2, and the cells were digested with EDTA trypsin according to routine use, and passed two to three times a week for placement.
(2) Animals: C57 BALB/C mice, 6-8 weeks old, female, weighing about 18-22 g, purchased from Shanghai SLAC Laboratory Animal Co., Ltd.
3) Immunization: Mice were intraperitoneally injected with 100 μL of 5×10^5 D121 lung cancer cells that died by repeated freeze-thaw cycles, and immunized 3 times with an interval of 2 weeks.
4) Cell seeding: Collect the tumor cells in logarithmic growth phase, adjust the D121 cell concentration to (1×10^7/ml) with DMEM basal medium, 0.1 ml of the cell suspension was inoculated to the right side of each mouse subcutaneously with a 1 ml syringe. […] Tumor volume was observed and measured, and the average tumor volume reached 100-200 mm^3 about 7 days after inoculation, that is, tumor cell-bearing mice were grouped and administered. The immunized group in Table 9 was immunized with D121 lung cancer cells, and the D121 dead tumor cell immunized group was injected with physiological saline as a control.
The immunosuppressive regulatory point protein Anti-PD-L1 antibody was injected twice a week. A total of two weeks.
6) Experimental observation: During the whole experiment, the use and observation of experimental animals were carried out in accordance with the regulations of AAALAC. The experimental animals were observed daily after inoculation of tumor cells, and their onset and death were recorded. During the routine experiment, all experimental animals were monitored and recorded for behavior, feeding, water intake, weight change, hair shine and other abnormalities.
(7) Analysis of tumor CD8+ T cells (T lymphocyte subsets). Tumor tissues were ground and single cancer cells were isolated by filtration using 40 μm Nylon cell strainer, lysed twice with blood cell lysis buffer for 20 min, washed twice with 1% BSA-PBS buffer, centrifuged, and resuspended, and then the cells were counted again. 1×10^5 cells were incubated with leukocyte co-antigen CD45-PE and CD8-FITC-labeled antibody for 1 hour at room temperature in the dark, and then analyzed the proportion of T lymphocyte antigen (CD8) in leukocyte common antigen (CD45)-positive cells by flow cytometry.

[3] = Solid stability, 60° C. for 10 days in the dark (HPLC); format: physicochemical; conditions: solid, 60° C., 10 days, dark; for Stability(%): content versus time 0
Description: The test was carried out by leaving it at 60° C. for 10 days in the dark. The ratio of the change in the content of the compound to the compound at time 0 was measured by HPLC, and the stability value (%) was calculated.

[4] = test system: Heg2 cells; experiment: MTT cytotoxicity on Heg2 cells; format: cell-based; conditions: FIG. 3; for toxicity to Heg2 cells: 48 hours, pH 6.5, MTT; for inhibition of cancer cells versus positive controls: cell viability experiments
Description: Collect logarithmic Heg2 cells, adjust the cell suspension concentration, add 140 ul per well, and plate to adjust the density of the cells to be tested ˜5000/well; 5% CO2, incubate at 37° C. overnight, until the cell monolayer is covered with the bottom of the well (96) Condensate bottom plate), adding continuous concentration gradient to give different concentrations of compound S1, compound a and sorafenib, the drug set 9 concentration gradients, 10 ul per well, set 3 duplicate wells; 5% CO2, 37° C. PH6 0.5 incubation for 48 hours, observed under an inverted microscope; 20 μl of MTT solution (5 mg/ml, i.e. 0.5% MTT) was added to each well and incubation was continued for 4 h. The culture was terminated, and the culture solution in the well was carefully aspirated; 100 ul of dimethyl sulfoxide was added to each well, and shaken on a shaker at a low speed for 10 min to dissolve the crystals sufficiently. The absorbance of each well was measured at an enzyme-linked immunosorbent detector at OD490 nm. At the same time, zero adjustment holes (medium, MTT, dimethyl sulfoxide), control group (cell, same concentration of drug dissolution medium, medium, MTT, dimethyl sulfoxide) were set.

[5] = target: T1, aspartic endopeptidase (Homo sapiens, UniProt Q99538); experiment: Activation efficiency by aspartic endopeptidase (HPLC); format: biochemical; conditions: 1 mg/ml compound, enzyme 1 μmol/L, pH 6.0, 37° C., 2 hours; ratio of released product to original compound
T1 sequence (Q99538 18-323): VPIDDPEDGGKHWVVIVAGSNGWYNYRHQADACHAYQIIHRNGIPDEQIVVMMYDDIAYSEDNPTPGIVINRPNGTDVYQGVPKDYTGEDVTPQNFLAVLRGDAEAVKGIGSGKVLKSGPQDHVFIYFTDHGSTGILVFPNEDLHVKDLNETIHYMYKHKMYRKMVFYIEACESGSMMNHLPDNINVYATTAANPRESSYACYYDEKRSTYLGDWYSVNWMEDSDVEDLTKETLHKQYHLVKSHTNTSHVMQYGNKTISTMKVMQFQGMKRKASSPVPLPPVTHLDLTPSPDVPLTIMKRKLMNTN
Description: The sample compound and a portion of the control compound (herein, all of the control compounds can be synthesized by a method similar to that described in Examples 1-3) were uniformly diluted 10-fold to 1 mg/ml with the enzyme-digesting solution. In this experiment, 1 mg/ml of the sample compound was added to the aspartic endopeptidase (1 μmol/L, pH 6.0) at 37° C. for 2 hours. After the reaction, the enzyme digest was able to release the enzyme-digested product. The decrease in the compound and the increase in the product were examined by HPLC to compare the enzyme activation efficiency (the ratio of the product released by the enzyme cleavage to the original compound).

[6] = test system: Tumor-associated macrophages (M2 type); experiment: MTT toxicity on tumor-associated macrophages (M2 type); format: cell-based; conditions: 48 hours, pH 6.5, MTT, FIG. 7
Description: Tumor-associated macrophages (M2 type) induced by mononuclear bone marrow cells were collected by M-CSF (10 ng/ml), the cell suspension concentration was adjusted, 140 ul per well was added, and the cells were adjusted to a density of ˜3000 […]. 5% CO2, incubate at 37° C. overnight, until the cell monolayer is covered with the bottom of the well (96-well flat bottom plate), and then add a continuous concentration gradient to give different concentrations of the drug, the drug is set to 9 concentration gradients, 10 μl per well, set Three replicate wells; 5% CO2, incubated at 37° C., pH 6.5 for 48 hours, observed under an inverted microscope; 20 μl of MTT solution (5 mg/ml, i.e., 0.5% MTT) was added to each well and culture was continued for 4 h. The culture was terminated, and the culture solution in the well was carefully aspirated; 100 ul of dimethyl sulfoxide was added to each well, and shaken on a shaker at a low speed for 10 min to dissolve the crystals sufficiently. The absorbance of each well was measured at an enzyme-linked immunosorbent detector at OD490 nm. At the same time, zero adjustment holes (medium, MTT, dimethyl sulfoxide), control group (cell, same concentration of drug dissolution medium, medium, MTT, dimethyl sulfoxide) were set. The toxicity of the compound to tumor-associated macrophages (M2 type) was analyzed after the test. The inhibition of tumor-associated macrophages (M2 type) by different drugs was compared. […] Compound a, sorafenib, is also toxic because it is not a targeted activating drug.

[7] = MTD (maximum tolerated dose) acute toxicity in mice; format: in vivo, mouse; conditions: female, mouse, in vivo; BALB/C mice, intravenous, observed 17 days
Text: (§1) Test purpose: to investigate the acute toxicity of highly activated compounds by targeted site molecules of the invention by measuring the MTD (maximum tolerated dose) experiment in mice.
(§2) The injections of each drug and the control drug were uniformly dissolved using water for injection, and diluted to the corresponding dose with physiological saline during the test.
(§3) Methods and results: […] BALB/C mice, weighing 19-21 g, were randomly divided into 10 groups, with 10 mice in each group. […] A control test of the saline group and the adriamycin group injection (commercially available, Beijing Yue kang) was carried out, and the injection volume of each mouse was 0.2 ml. […] On the D3, D5, and D14, blood samples were taken for whole blood count.

[8] = test system: BALB/C mouse; experiment: as above; format: in vivo; conditions: intravenous; for Number of deaths: 10 mice per group; for Death dose: observed 17 days
Text: as §1, §2, §3

[9] = test system: CT26 tumor cells; experiment: CT26 immunotherapy model (Example 15); format: in vivo, mice; conditions: for Cure rate % / Number of cures: 10 in each group; for Tumor inhibition rate % (Day 42): IV ⅓ MTD once a week, 6 weeks; for Recurrence rate % (Week 7): cured mice re-inoculated with CT26 cells after 50 days
Description: (§4) 1) CT26 tumor cells were purchased from ATCC, and the cells were cultured using a 10% fetal bovine serum DMEM medium at 37° C., 5% CO2. The cells were passaged every 3 days and the cells were used within 15 generations.
(§5) 2) Tumor production: 10^6 live CT26 tumor cells were injected subcutaneously into the back of tumor-immunized […], and treatment was started when the tumor grew to about 0.3-0.4 cm. The tumor size (mm^3) of the mice was recorded and compared with the solvent control group. The tumor inhibition rate on day 42 was calculated in the solvent control group.
(§6) 3) Treatment process: IV injection is used, and the drug is used at a dose of ⅓ MTD once a week Immunosuppressive IV injection treatment once a week for a total of 6 weeks of treatment.
(§7) 4) The cure rate of 10 in each group was counted. After 50 days, the cured mice and wild groups were inoculated […] to detect recurrence.

[10] = Tumor tissue distribution by autofluorescence after intravenous injection; format: in vivo; conditions: 10 μmol/kg intravenously, after 12 hours, FIG. 2
Description: Since DOX, Succinyl-AANL-DOX and S3 have autofluorescence, they can be detected by fluorescence microscopy in tumor tissues. 10 μmol/kg of DOX, Succinyl-AANL-DOX and S3 were injected intravenously. After 12 hours, the drug distribution image of the tumor tissue sections and the fluorescence intensity of the tumor tissue homogenate were measured. Nuclear staining was performed using DAPI.

[11] = test system: CT26 tumor cells; experiment: CT26 treatment model (Example 17); format: in vivo, mice; conditions: CT26 model as in Example 15
Description: as §4, §5, §6, §7
The CT26 immunotherapy model was constructed as in Example 15, and the pharmacodynamic and immunotherapeutic effects of the compounds S4-S6, S9-S12 and S15-S18 in the CT26 treatment model were tested.

[12] = Stability of sorafenib derivatives in buffer systems; format: physicochemical; conditions: weak acid, weak base and neutral buffer
Text: In order to solve this dilemma, the present invention performs allosteric synthesis and screening of the ortho-carboxamide group of the pyridine ring in the sorafenib molecule, and obtains a special compound which satisfies both the structure-activity relationship and the release effect. That is, compound a and compound b).

Structure (SMILES)	drug distribution in the tumor [1]	Tumor inhibition rate/% (week 7) [2] [%]	CD8: CD45 (%) ([2]; flow cytometry)	Stability verdict (stable / unstable) [3]	Stability(%) [3] [%]	toxicity to Heg2 cells [4]	Activation efficiencies (%) [5] [%]	toxicity to / activation by tumor-associated macrophages (M2 type) [6]	MTD at 17 days [7] [mg/kg]	Number of deaths [8]	Death dose [8] [mg/kg]	Cure rate % [9] [%]	Number of cures [9]	Tumor inhibition rate % (Day 42) [9] [%]	Recurrence rate % (Week 7) [9] [%]	inhibition of cancer cells versus positive controls [4]	stability in buffer systems [12]	also measured
CC(NC(=O)C(C)NC(=O)[C@H](O)[C@H](O)[C@@H](O[C@@H]1O[C@H](CO)[C@H](O)[C@H](O)[C@H]1O)[C@H](O)CO)C(=O)NC(CC(N)=O)C(=O)Nc1ccc(COC(=O)N(C)CCNC(=O)c2cc(Oc3ccc(NC(=O)Nc4ccc(Cl)c(C(F)(F)F)c4)cc3)ccn2)cc1 (stereo partly drawn) [Compound S1, Lacto-AAN-PABC-compound a]	multiplied in the distribution of sorafenib in the tumor	53.4	11.0	stable	96.7	non-toxic to normal cells	86.7	more susceptible to phagocytosis and activation by macrophages than other methods of linker	300	1	350	40	4	94.7	0	–	–	–
COc1cccc2c1C(=O)c1c(O)c3c(c(O)c1C2=O)C[C@](O)(C(=O)CO)CC3OC1C[C@H](NC(=O)OCc2ccc(NC(=O)C(CC(N)=O)NC(=O)C(C)NC(=O)C(C)NC(=O)[C@H](O)[C@H](O)[C@@H](O[C@@H]3O[C@H](CO)[C@H](O)[C@H](O)[C@H]3O)[C@H](O)CO)cc2)[C@H](O)[C@H](C)O1 (stereo partly drawn) [Compound S3, Lacto-AAN-PABC-Adriamycin]	increasing the distribution in the tumor compared to C11	62.5	14.6	stable	99.8	–	82.6	–	100	1	110	80	8	82.5	0	–	–	tumor tissue distribution and penetration [10]: more tumor tissue distribution and penetration after intravenous injection than Succinyl-AANL-DOX
CNC(=O)c1cc(Oc2ccc(NC(=O)Nc3ccc(Cl)c(C(F)(F)F)c3)cc2)ccn1 [Sorafenib, reference compound]	–	24.5	6.4	–	–	–	–	also toxic	11	0	12	–	–	–	–	–	–	effect on T cells ([2]; flow cytometry, discussion of Table 6): inhibited T cells; CD8: CD45 (%) [11]: 7.2%; Number of animals cured [11]: 0; Tumor inhibition rate/% (at week 7) [11]: 15.7%
CNCCNC(=O)c1cc(Oc2ccc(NC(=O)Nc3ccc(Cl)c(C(F)(F)F)c3)cc2)ccn1 [compound a]	–	–	–	–	–	more toxic than sorafenib	–	also toxic	–	–	–	–	–	–	–	inhibited cancer cells better than the positive control drugs sorafenib and regorafenib	stable in weak acid, weak base and neutral buffer system, did not degrade	–
CNCCNC(=O)c1cc(Oc2ccc(NC(=O)Nc3ccc(Cl)c(C(F)(F)F)c3)c(F)c2)ccn1 [compound b]	–	–	–	–	–	–	–	–	–	–	–	–	–	–	–	inhibited cancer cells better than the positive control drugs sorafenib and regorafenib	stable in weak acid, weak base and neutral buffer system, did not degrade	–
